In US9982188B2, “Near-infrared emitters” (MISSOURI STATE UNIVERSITY, priority 2015, dated 2018):
Entries after “also recorded” stand apart in the source; their conditions may differ.

How the values were obtained:
[1] = related amide-cyanoximes, Ref [1, 2] / [1, 3]; cited from earlier work
[2] = potentiometric pH titration for pKa (ionization constant); format: physicochemical; conditions: isopropyl alcohol (ISA)/water mixture, aqueous pKa, 23° C., Yasuda-Shedlovsky extrapolation to zero ISA
Experimental: Ionization constants for the new cyanoxime compound 1 [H(DECO)] were determined using a Sirius Analytical Instruments automated titration station (Sussex, UK) equipped with a temperature-controlled bath. The titration was performed three times at 23° C. in an isopropyl alcohol (ISA) water mixture as described below. The weighed amount of compound 1 (3.08 mg) was placed into a titration vial. Sixteen milliliters of ISA water was delivered automatically to the vial. The pH of the solution was adjusted to 10 by adding 0.5 M KOH automatically. The titration with 0.5M HCl was performed automatically until a pH value of 2.5 was reached. To perform the second and third titrations, an additional volume of ISA and water (1 mL and 1 mL) was delivered automatically to the titration vial, respectively. The datasets for the three titrations were combined in the RefinementPro program to create a Multiset for pKa calculation. Also, these datasets were combined and extrapolated to a zero ISA concentration.
The aqueous pKa was calculated with a Yasuda-Shedlovsky extrapolation in the RefinementPro software.

[3] = solubility observations in water and organic solvents; format: physicochemical

SMILES | pKa (pH titration) [1] | pKa [2] | solubility in organic solvents ([3]; solvent named in the value) | solubility in water ([3]; water)
N#C/C(=N\O)C(N)=O [H(ACO)] | 5.034 ± 0.002 | – | – | –
CN(C)C(=O)/C(C#N)=N/O [H(DCO)] | 5.52 ± 0.03 | – | – | –
CCN(CC)C(=O)/C(C#N)=N/O [compound 1, 2-cyano-2-oximino-N,N′-diethylaminoacetamide] | – | 5.622 ± 0.005 | soluble in most organic solvents except hydrocarbons | not well soluble in water; also recorded: insoluble in water
